According to ChEMBL document CHEMBL1201862, “PubChem BioAssay data set” (2004):
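Five compound concentrations were applied to cells in 96-well plates for 48 hours; endpoints were derived by simple linear interpolation of the resulting dose-response curve. Abbreviation: GI50, concentration required for 50% inhibition of growth.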 The source made the active and inactive calls. No stated cut-off is given here; in the data, active = GI50 up to about 1.1 µM and inactive = higher.

Key:
Experiment in all cases: DTP human tumour cell line panel, 48 h
CCRF-CEM = system: CCRF-CEM
EKVX = system: EKVX
HCC 2998 = system: HCC 2998
HCT-15 = system: HCT-15
HT-29 = system: HT-29
K562 = system: K562
MOLT-4 = system: MOLT-4
NCI-H460 = system: NCI-H460
OVCAR-3 = system: OVCAR-3
OVCAR-4 = system: OVCAR-4
SF-295 = system: SF-295
SK-MEL-28 = system: SK-MEL-28
SK-MEL-2 = system: SK-MEL-2
SK-OV-3 = system: SK-OV-3
SNB-19 = system: SNB-19
SNB-75 = system: SNB-75
UACC-257 = system: UACC-257
UO-31 = system: UO-31
HCT-116 = system: HCT-116
SR = system: SR

SMILES	GI50 (CCRF-CEM)	GI50 (EKVX)	GI50 (HCC 2998)	GI50 (HCT-15) [µM]	GI50 (HT-29)	GI50 (K562)	GI50 (MOLT-4)	GI50 (NCI-H460)	GI50 (OVCAR-3)	GI50 (OVCAR-4)	GI50 (SF-295)	GI50 (SK-MEL-28)	GI50 (SK-MEL-2)	GI50 (SK-OV-3)	GI50 (SNB-19)	GI50 (SNB-75)	GI50 (UACC-257)	GI50 (UO-31)	GI50 (HCT-116)	GI50 (SR)
CCOC(=O)CC1(c2cccc3ccccc23)OC(=O)c2ccccc21 (centres undefined)	43.1 µM (inactive)	63.2 µM (inactive)	62.5 µM (inactive)	35.5	49.8 µM (inactive)	37.9 µM (inactive)	25.4 µM (inactive)	37.6 µM (inactive)	33.6 µM (inactive)	40.4 µM (inactive)	34.4 µM (inactive)	39.9 µM (inactive)	32.1 µM (inactive)	> 100 µM (inactive)	50.9 µM (inactive)	14 µM (inactive)	56.4 µM (inactive)	23.9 µM (inactive)	–	–
C=C1C(O)C2(O)OCC34C(CC5C(C)=CC(=O)C(O)C5(C)C23)OC(=O)C(OC(=O)C/C=C/CCCCCCCC)C14 (centres undefined)	0.02 µM (active)	0.02 µM (active)	0.02 µM (active)	0.0241	0.0226 µM (active)	0.02 µM (active)	0.02 µM (active)	–	–	–	–	0.02 µM (active)	0.0241 µM (active)	0.056 µM (active)	0.0212 µM (active)	0.0228 µM (active)	–	0.0452 µM (active)	0.02 µM (active)	–
CC(=O)OC1CCC2(C)C(CCC3C4CC=C(C5(C)OCCO5)C4(C)CCC32)C1 (centres undefined)	19.5 µM (inactive)	21.7 µM (inactive)	–	27.2	19.5 µM (inactive)	25.1 µM (inactive)	17.3 µM (inactive)	20 µM (inactive)	19.7 µM (inactive)	19.7 µM (inactive)	26.1 µM (inactive)	21.2 µM (inactive)	18.5 µM (inactive)	47.9 µM (inactive)	30.2 µM (inactive)	28.8 µM (inactive)	18.7 µM (inactive)	25.4 µM (inactive)	20.1 µM (inactive)	17.1 µM (inactive)
Cc1[nH]c(-c2ccccc2)c(O)c1C(=O)OC1CC(C)CCC1C(C)C (centres undefined)	11 µM (inactive)	11.7 µM (inactive)	–	17.8	14.4 µM (inactive)	50 µM (inactive)	11.1 µM (inactive)	15.3 µM (inactive)	12.7 µM (inactive)	13.4 µM (inactive)	12.4 µM (inactive)	16.3 µM (inactive)	14.3 µM (inactive)	15.3 µM (inactive)	17.3 µM (inactive)	17.9 µM (inactive)	15.7 µM (inactive)	13.3 µM (inactive)	14.9 µM (inactive)	8.51 µM (inactive)
O=C1Nc2ccc(Br)cc2/C1=N/c1ccc(Cl)cc1	11.6 µM (inactive)	15.9 µM (inactive)	19.1 µM (inactive)	11.1	12.1 µM (inactive)	0.586 µM (active)	25.6 µM (inactive)	14.4 µM (inactive)	15.8 µM (inactive)	–	3.63 µM (inactive)	23.3 µM (inactive)	–	40.8 µM (inactive)	28 µM (inactive)	–	18.1 µM (inactive)	13.5 µM (inactive)	14.3 µM (inactive)	6.21 µM (inactive)
Cc1ccc(NC(=O)C2C(=O)N(c3ccc(C)c(C)c3)C(=O)/C2=N\NC(N)=S)cc1C (centres undefined)	47.4 µM (inactive)	> 100 µM (inactive)	–	> 100	78 µM (inactive)	60.7 µM (inactive)	42.6 µM (inactive)	–	> 100 µM (inactive)	–	> 100 µM (inactive)	> 100 µM (inactive)	> 100 µM (inactive)	45 µM (inactive)	29.6 µM (inactive)	> 100 µM (inactive)	> 100 µM (inactive)	56.8 µM (inactive)	> 100 µM (inactive)	> 100 µM (inactive)
COC(C[C@H]1CCCC[C@]1(O)/C(=C\CO[Si](C(C)C)(C(C)C)C(C)C)Sc1ccccc1)OC	27 µM (inactive)	37.4 µM (inactive)	16.5 µM (inactive)	21.8	46.1 µM (inactive)	31.3 µM (inactive)	17.3 µM (inactive)	60 µM (inactive)	–	39.2 µM (inactive)	32.4 µM (inactive)	50.6 µM (inactive)	22.7 µM (inactive)	> 100 µM (inactive)	26.7 µM (inactive)	18.1 µM (inactive)	42.4 µM (inactive)	42.2 µM (inactive)	22.5 µM (inactive)	20.7 µM (inactive)
Oc1cc(-c2ccc(Cl)cc2)nc2ncccc12	41.7 µM (inactive)	52.2 µM (inactive)	69 µM (inactive)	27.4	34.9 µM (inactive)	11.5 µM (inactive)	40.2 µM (inactive)	–	–	56.6 µM (inactive)	–	57.1 µM (inactive)	31 µM (inactive)	46 µM (inactive)	64.1 µM (inactive)	24.5 µM (inactive)	53.5 µM (inactive)	33 µM (inactive)	–	5.56 µM (inactive)
